Results on 33 molecules are retold here after patent US20060223996A1, “IL-12 modulatory compounds” (Synta Pharmaceuticals Corp., priority 2004, published 2006).

This test relates to IL-12. The experiment in a line: Human in vitro assay: inhibition of IL-12 production in IFNγ/LPS- or IFNγ/SAC-stimulated human PBMC or THP-1 cells (ELISA). The class given is cell-based. The conditions noted are these: read-out: IC50 Range (representative in vitro IC50 data). A digest of the protocol: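 Sandwich ELISA for IL-12 (p70, p40) on supernatants collected 18 h after stimulation gave IC50 values; MTS monitored viability. THP-1 cells: IFNγ 100 U/mL priming 22 h, SAC 0.025%. PBMC: IFNγ 30 U/mL for 22 h plus LPS 1 μg/mL, or IFNγ 100 U/mL plus SAC 0.01%. Final DMSO 0.25%.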
(In general: ELISA stands for enzyme-linked immunosorbent assay.)

Structures are written as SMILES. Some results are limits rather than exact numbers.

For the molecule `Cc1ccc2cc(NC(=O)Nc3cc(OCCN4CCOCC4)nc(N4CCOCC4)n3)ccc2n1` [Compound 136, 1-(2-Methyl-quinolin-6-yl)-3-[2-morpholin-4-yl-6-(2-morpholin-4-yl-ethoxy)-pyrimidin-4-yl]-urea], the IC50 (usually the midpoint of a concentration-inhibition curve) is below 1000 nM.

Turning to `Cc1[nH]c2ccc(NC(=O)c3cc(N4CCOCC4)nc(OCCc4ccccn4)n3)cc2c1C` [Compound 63, 6-Morpholin-4-yl-2-(2-pyridin-2-yl-ethoxy)-pyrimidine-4-carboxylic acid (2,3-dimethyl-1H-indol-5-yl)-amide], the IC50 was at least 1000 nM.

Consider `Cc1[nH]c2ccc(NC(=O)c3cc(OCCN4CCOC4=O)nc(N4CCOCC4)n3)cc2c1C` [Compound 21, 2-Morpholin-4-yl-6-[2-(2-oxo-oxazolidin-3-yl)-ethoxy]-pyrimidine-4-carboxylic acid (2,3-dimethyl-1H-indol-5-yl)-amide], for which the IC50 was below 1000 nM.

With `CONc1cc(C(=O)Nc2cccc(N(C)C)c2)nc(N2CCOCC2)c1` [Compound 160, 4-Methoxyamino-6-morpholin-4-yl-pyridine-2-carboxylic acid (3-dimethylamino-phenyl)-amide], the IC50 is below 1000 nM.

As for `CCc1c[nH]c2ccc(NC(=O)c3cc(N4CCN(C(C)=O)CC4)cc(N4CCOCC4)n3)cc12` [Compound 181, 4-(4-Acetyl-piperazin-1-yl)-6-morpholin-4-yl-pyridine-2-carboxylic acid (3-ethyl-1H-indol-5-yl)-amide], the IC50 was below 1000 nM.

In the case of `CC(=O)Nc1ccccc1NC(=O)c1cc(OCCN2CCOCC2)nc(N2CCOCC2)n1` [Compound 49, 2-Morpholin-4-yl-6-(2-morpholin-4-yl-ethoxy)-pyrimidine-4-carboxylic acid (2-acetylamino-phenyl)-amide], the IC50 is at least 1000 nM.

In the case of `Cc1c(C)n(C)c2ccc(NC(=O)c3cc(OCCN4CCOCC4)nc(N4CCOCC4)n3)cc12` [Compound 24, 2-Morpholin-4-yl-6-(2-morpholin-4-yl-ethoxy)-pyrimidine-4-carboxylic acid (1,2,3-trimethyl-1H-indol-5-yl)-amide], the IC50 is below 1000 nM.

On to `Cc1[nH]c2ccc(NC(=O)c3cc(OCCO)nc(N4CCOCC4)n3)cc2c1C` [Compound 307, 6-(2-Hydroxy-ethoxy)-2-morpholin-4-yl-pyrimidine-4-carboxylic acid (2,3-dimethyl-1H-indol-5-yl)-amide], for which the IC50 is below 1000 nM.

For `COCCN(C)c1cc(C(=O)Nc2cccc(N(C)C)c2)nc(N2CCOCC2)n1` [Compound 302, 6-[(2-Methoxy-ethyl)-methyl-amino]-2-morpholin-4-yl-pyrimidine-4-carboxylic acid (3-dimethylamino-phenyl)-amide], the IC50 was below 1000 nM.

Consider `Cc1cc(C)cc(NC(=O)c2cc(OCCN3CCOCC3)nc(N3CCOCC3)n2)c1` [Compound 282, 2-Morpholin-4-yl-6-(2-morpholin-4-yl-ethoxy)-pyrimidine-4-carboxylic acid (3,5-dimethyl-phenyl)-amide], for which the IC50 is below 1000 nM.

Consider `O=C(Nc1nnc(C2CC2)s1)c1cc(OCCN2CCOCC2)nc(N2CCOCC2)n1` [Compound 163, 2-Morpholin-4-yl-6-(2-morpholin-4-yl-ethoxy)-pyrimidine-4-carboxylic acid (5-cyclopropyl-[1,3,4]thiadiazol-2-yl)-amide], for which the half-inhibitory concentration (IC50) is at least 1000 nM.

As to `COCCN(C)c1cc(C(=O)Nc2cccc(-c3nncn3C)c2)nc(N2CCOCC2)n1` [Compound 208, 6-((2-methoxyethyl)(methyl)amino)-N-(3-(4-methyl-4H-1,2,4-triazol-3-yl)phenyl)-2-morpholinopyrimidine-4-carboxamide], the IC50 was at least 1000 nM.

`Cc1[nH]c2ccc(NC(=O)c3cc(NCCN(C)C)nc(N4CCOCC4)n3)cc2c1C` [Compound 95, 6-(2-Dimethylamino-ethylamino)-2-morpholin-4-yl-pyrimidine-4-carboxylic acid (2,3-dimethyl-1H-indol-5-yl)-amide]: the IC50 was below 1000 nM.

As to `COCCN(C)c1cc(C(=O)Nc2cccc(S(C)(=O)=O)c2)nc(N2CCOCC2)n1` [Compound 231, 6-[(2-Methoxy-ethyl)-methyl-amino]-2-morpholin-4-yl-pyrimidine-4-carboxylic acid (3-methanesulfonyl-phenyl)-amide], the IC50 is at least 1000 nM.

For the molecule `CC(=O)N1CCN(c2cc(NC(=O)Nc3ccc4[nH]c(C)c(C)c4c3)nc(N3CCOCC3)n2)CC1` [Compound 264, 1-(6-(4-acetylpiperazin-1-yl)-2-morpholinopyrimidin-4-yl)-3-(2,3-dimethyl-1H-indol-5-yl)urea], the IC50 is below 1000 nM.

Consider `Cc1cc(NC(=O)c2cc(OCCN3CCOCC3)nc(N3CCOCC3)n2)ccc1N(C)C` [Compound 288, 2-Morpholin-4-yl-6-(2-morpholin-4-yl-ethoxy)-pyrimidine-4-carboxylic acid (4-dimethylamino-3-methyl-phenyl)-amide], for which the IC50 was at least 1000 nM.

For `Cc1cc(NC(=O)Nc2cc(OCCN3CCOCC3)nc(N3CCOCC3)n2)ccc1C(C)C` [Compound 329, 1-(4-Isopropyl-3-methyl-phenyl)-3-[2-morpholin-4-yl-6-(2-morpholin-4-yl-ethoxy)-pyrimidin-4-yl]-urea], the IC50 is below 1000 nM.

As to `Cc1[nH]c2ccc(NC(=O)c3cc(CN4CCOCC4)nc(N4CCOCC4)n3)cc2c1C` [Compound 259, N-(2,3-dimethyl-1H-indol-5-yl)-2-morpholino-6-(morpholinomethyl)pyrimidine-4-carboxamide], the IC50 is below 1000 nM.

As to `O=C(Nc1nc(OCCc2ccccn2)cc(N2CCOCC2)n1)c1ccncc1` [Compound 76, N-[4-Morpholin-4-yl-6-(2-pyridin-2-yl-ethoxy)-pyrimidin-2-yl]-isonicotinamide], the IC50 is at least 1000 nM.

Turning to `CCc1cccc(NC(=O)c2cc(OCCN3CCOCC3)nc(N3CCOCC3)n2)c1` [Compound 46, 2-Morpholin-4-yl-6-(2-morpholin-4-yl-ethoxy)-pyrimidine-4-carboxylic acid (3-ethyl-phenyl)-amide], the IC50 was at least 1000 nM.

`Cc1ccnc(NC(=O)c2cc(OCCc3ccccn3)nc(N3CCOCC3)n2)c1` [Compound 35, 2-Morpholin-4-yl-6-(2-pyridin-2-yl-ethoxy)-pyrimidine-4-carboxylic acid (4-methyl-pyridin-2-yl)-amide]: the IC50 was at least 1000 nM.

For the molecule `Cc1[nH]c2ccc(NC(=O)c3cc(N4CCN(CCO)CC4)nc(N4CCOCC4)n3)cc2c1C` [Compound 94, 6-[4-(2-Hydroxy-ethyl)-piperazin-1-yl]-2-morpholin-4-yl-pyrimidine-4-carboxylic acid (2,3-dimethyl-1H-indol-5-yl)-amide], the IC50 was below 1000 nM.

Take `CCN(CC)C(=O)COc1cc(C(=O)Nc2ccc3[nH]c(C)c(C)c3c2)nc(N2CCOCC2)n1` [Compound 256, 6-(2-(diethylamino)-2-oxoethoxy)-N-(2,3-dimethyl-1H-indol-5-yl)-2-morpholinopyrimidine-4-carboxamide]: the IC50 was below 1000 nM.

Consider `CON(CCN1CCOCC1)c1cc(C(=O)Nc2ccc3[nH]c(C)c(C)c3c2)nc(N2CCOCC2)n1` [Compound 195, N-(2,3-dimethyl-1H-indol-5-yl)-6-(methoxy(2-morpholinoethyl)amino)-2-morpholinopyrimidine-4-carboxamide], for which the IC50 is below 1000 nM.

Turning to `Cc1[nH]c2ccc(NC(=O)c3cc(NCC(=O)N(C)CCO)nc(N4CCOCC4)n3)cc2c1C` [Compound 101, 6-({[(2-Hydroxy-ethyl)-methyl-carbamoyl]-methyl}-amino)-2-morpholin-4-yl-pyrimidine-4-carboxylic acid (2,3-dimethyl-1H-indol-5-yl)-amide], the IC50 was below 1000 nM.

As for `Cc1ccc(NC(=O)c2cc(OCCN3CCOCC3)nc(N3CCOCC3)n2)cc1C` [Compound 23, 2-Morpholin-4-yl-6-(2-morpholin-4-yl-ethoxy)-pyrimidine-4-carboxylic acid (3,4-dimethyl-phenyl)-amide], the IC50 is below 1000 nM.

With `CCc1c(C)[nH]c2ccc(NC(=O)Nc3cc(NCCN4CCOCC4)nc(N4CCOCC4)n3)cc12` [Compound 270, 1-(3-ethyl-2-methyl-1H-indol-5-yl)-3-(2-morpholino-6-(2-morpholinoethylamino)pyrimidin-4-yl)urea], the IC50 was below 1000 nM.

`Cc1[nH]c2ccc(NC(=O)Nc3cc(OCCN4CCOCC4)nc(N4CCOCC4)n3)cc2c1C` [Compound 323, 1-(2,3-Dimethyl-1H-indol-5-yl)-3-[2-morpholin-4-yl-6-(2-morpholin-4-yl-ethoxy)-pyrimidin-4-yl]-urea]: the IC50 is below 1000 nM.

As for `NC(=O)c1cccc(NC(=O)c2cc(OCCN3CCOC3=O)nc(N3CCOCC3)n2)c1` [Compound 43, 2-Morpholin-4-yl-6-[2-(2-oxo-oxazolidin-3-yl)-ethoxy]-pyrimidine-4-carboxylic acid (3-carbamoyl-phenyl)-amide], the IC50 was at least 1000 nM.

In the case of `COCCN(C)c1cc(C(=O)Nc2cc(C(C)(C)C)ccc2O)nc(N2CCOCC2)n1` [Compound 225, 6-[(2-Methoxy-ethyl)-methyl-amino]-2-morpholin-4-yl-pyrimidine-4-carboxylic acid (5-tert-butyl-2-hydroxy-phenyl)-amide], the IC50 is at least 1000 nM.

Turning to `O=C(Nc1cccc(F)c1)Nc1cc(OCCN2CCOCC2)nc(N2CCOCC2)n1` [Compound 125, 1-(3-Fluoro-phenyl)-3-[2-morpholin-4-yl-6-(2-morpholin-4-yl-ethoxy)-pyrimidin-4-yl]-urea], the IC50 is below 1000 nM.

As to `Cc1cccc(N(C)C(=O)Nc2cc(N3CCOCC3)nc(OCCc3ccccn3)n2)c1` [Compound 69, 1-Methyl-3-[6-morpholin-4-yl-2-(2-pyridin-2-yl-ethoxy)-pyrimidin-4-yl]-1-m-tolyl-urea], the IC50 was at least 1000 nM.

On to `O=C(Nc1cccc(Cl)c1)c1cc(OCCN2CCOCC2)nc(N2CCOCC2)n1` [Compound 287, 2-Morpholin-4-yl-6-(2-morpholin-4-yl-ethoxy)-pyrimidine-4-carboxylic acid (3-chloro-phenyl)-amide], for which the IC50 is at least 1000 nM.
